Calls of active or inactive are those of the source. The calls are words filed in the database; no cut-off is given here.
Tests used:
[1] = target: T1, Protein cereblon/Stimulator of interferon genes protein (Mus musculus) (UniProt Q3TBT3+Q8C7D2); test: In vivo inhibition of STING/TBK1/NF-kappaB signaling in C57BL/6J mouse assessed as decrease in serum IFN-beta level at 25 to 50 mg/kg, ip measured after 72 hrs by ELISA; type: functional, organism-based; settings: dose 25-50 mg/kg
Mus musculus [2] = test: Renoprotective activity against cisplatin-induced C57BL/6J mouse acute kidney injury model assessed as survival rate at 50 mg/kg, ip measured after 72 hrs relative to control; type: functional
BV-2 = test: Cytotoxicity against mouse BV-2 cells assessed as reduction in cell viability at > 60 uM incubated for 24 hrs by MTT assay; type: toxicity, cell-based; settings: bv-2, 24 h
[3] = Toxicity in cisplatin-induced acute kidney injury C57BL/6J mouse model assessed as morphological abnormality in heart at 25 to 50 mg/kg, ip by H and E staining based analysis; type: organism-based; settings: in vivo, dose 25-50 mg/kg
[4] = Metabolic stability in human liver microsomes assessed as metabolic factor relative to control; type: ADME, Microsome
[5] = target: T2, Protein cereblon/Stimulator of interferon genes protein (Homo sapiens, UniProt Q96SW2+Q86WV6); test: PROTAC activity at CRBN/STING in human THP-1 cells assessed as induction of STING degradation at 5 uM incubated for 24 hrs in presence of bafilomycin by Western blotting analysis; type: cell-based
Target sequence in this assay (Q86WV6 whole entry, looked up): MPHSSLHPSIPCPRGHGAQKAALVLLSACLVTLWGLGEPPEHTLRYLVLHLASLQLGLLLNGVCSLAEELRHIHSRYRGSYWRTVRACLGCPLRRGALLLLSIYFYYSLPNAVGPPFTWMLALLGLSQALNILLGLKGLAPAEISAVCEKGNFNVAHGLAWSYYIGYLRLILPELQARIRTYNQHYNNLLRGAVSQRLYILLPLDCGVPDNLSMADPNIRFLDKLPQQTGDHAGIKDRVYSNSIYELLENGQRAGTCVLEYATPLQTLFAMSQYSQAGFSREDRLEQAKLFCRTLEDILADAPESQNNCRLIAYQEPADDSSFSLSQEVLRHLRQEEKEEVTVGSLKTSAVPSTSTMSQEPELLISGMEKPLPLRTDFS
Target sequence in this assay (Q96SW2 whole entry, looked up): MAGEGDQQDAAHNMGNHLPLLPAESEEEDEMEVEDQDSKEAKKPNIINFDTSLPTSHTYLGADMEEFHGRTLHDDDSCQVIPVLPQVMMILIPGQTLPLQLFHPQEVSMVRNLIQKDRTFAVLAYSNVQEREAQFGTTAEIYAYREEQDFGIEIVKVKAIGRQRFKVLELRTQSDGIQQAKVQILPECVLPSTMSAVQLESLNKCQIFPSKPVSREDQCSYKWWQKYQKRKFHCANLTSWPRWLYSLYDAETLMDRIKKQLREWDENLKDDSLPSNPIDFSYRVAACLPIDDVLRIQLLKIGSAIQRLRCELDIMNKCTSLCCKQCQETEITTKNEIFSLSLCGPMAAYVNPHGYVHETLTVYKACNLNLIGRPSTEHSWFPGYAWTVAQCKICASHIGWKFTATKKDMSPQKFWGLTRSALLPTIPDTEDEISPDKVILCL

[6] = AUC (0 to infinity) in male Sprague-Dawley rat at 2 mg/kg, iv measured after 12 hrs by LC-MS/MS analysis; type: ADME, organism-based; settings: in vivo
Mus musculus [7] = test: Renoprotective activity against cisplatin-induced C57BL/6J mouse acute kidney injury model assessed as decrease in disease activity index score at 25 to 50 mg/kg, ip measured after 72 hrs; type: functional, organism-based; settings: dose 25-50 mg/kg
[8] = Acute toxicity in C57BL/6J mouse assessed as change in body weight at 30 mg/kg; type: organism-based; settings: in vivo
[9] = Apparent volume of distribution in male Sprague-Dawley rat at 2 mg/kg, iv measured after 12 hrs by LC-MS/MS analysis; type: ADME, organism-based; settings: in vivo, read-out: Vz
[10] = MRT (0 to t) in male Sprague-Dawley rat at 2 mg/kg, iv measured after 12 hrs by LC-MS/MS analysis; type: ADME, organism-based; settings: in vivo
[11] = Acute toxicity in C57BL/6J mouse assessed as change in body weight at 125 mg/kg; type: organism-based; settings: in vivo
Mus musculus [12] = test: Renoprotective activity against cisplatin-induced C57BL/6J mouse acute kidney injury model assessed as decrease in fecal viscosity at 25 to 50 mg/kg, ip measured after 72 hrs; type: functional, organism-based; settings: dose 25-50 mg/kg
[13] = target: T2, Protein cereblon/Stimulator of interferon genes protein; test: PROTAC activity at CRBN/STING in human THP-1 cells assessed as induction of STING degradation at 5 uM measured after 24 hrs by Western blotting analysis relative to control; type: cell-based
Target sequence in this assay (Q86WV6 whole entry, looked up): as the sequence (Q86WV6 whole entry, looked up) above
Target sequence in this assay (Q96SW2 whole entry, looked up): as the sequence (Q96SW2 whole entry, looked up) above

[14] = target: T1, Protein cereblon/Stimulator of interferon genes protein (Mus musculus); test: In vivo inhibition of STING/TBK1/NF-kappaB signaling in C57BL/6J mouse assessed as decrease in serum IL-6 level at 25 to 50 mg/kg, ip measured after 72 hrs by ELISA; type: functional, organism-based; settings: dose 25-50 mg/kg
THP-1 [15] = test: PROTAC activity at CRBN/LKB1 in human THP-1 cells assessed as induction of LKB1 degradation at 1.25 to 20 uM by Western blotting analysis; type: cell-based; settings: dose 1.25-20 µM
[16] = Acute toxicity in C57BL/6J mouse assessed as change in body weight at 88 mg/kg; type: organism-based; settings: in vivo
[17] = MRT (0 to infinity) in male Sprague-Dawley rat at 2 mg/kg, iv measured after 12 hrs by LC-MS/MS analysis; type: ADME, organism-based; settings: in vivo
[18] = Cytotoxicity against rat BRL-3A cells assessed as reduction in cell viability at 0.5 to 120 uM incubated for 24 hrs by MTT assay; type: toxicity, cell-based; settings: dose 0.5-120 µM
THP-1 [19] = test: PROTAC activity at CRBN/STAT3 in human THP-1 cells assessed as induction of STAT3 degradation at 1.25 to 20 uM by Western blotting analysis; type: cell-based; settings: dose 1.25-20 µM
HK-2 = test: Inhibition of STING downstream signal pathway in cisplatin stimulated human HK-2 cells assessed as reduction in STING protein level at 1.25 to 5 uM pretreated with cisplatin followed by compound addition by Western blotting analysis; type: cell-based; settings: dose 1.25-5 µM
[20] = target: T2, Protein cereblon/Stimulator of interferon genes protein; test: PROTAC activity at CRBN/STING in human THP-1 cells assessed as induction of STING degradation measured after 24 hrs by Western blotting analysis; type: cell-based
Target sequence in this assay (Q96SW2 whole entry): as the sequence (Q96SW2 whole entry, looked up) above
Target sequence in this assay (Q86WV6 whole entry): as the sequence (Q86WV6 whole entry, looked up) above

Mus musculus [21] = test: Renoprotective activity against cisplatin-induced C57BL/6J mouse acute kidney injury model assessed as survival rate at 25 mg/kg, ip measured after 72 hrs relative to control; type: functional
[22] = Clearance in male Sprague-Dawley rat at 2 mg/kg, iv measured after 12 hrs by LC-MS/MS analysis; type: ADME, organism-based; settings: in vivo

T1 sequence (Q3TBT3 whole entry, looked up): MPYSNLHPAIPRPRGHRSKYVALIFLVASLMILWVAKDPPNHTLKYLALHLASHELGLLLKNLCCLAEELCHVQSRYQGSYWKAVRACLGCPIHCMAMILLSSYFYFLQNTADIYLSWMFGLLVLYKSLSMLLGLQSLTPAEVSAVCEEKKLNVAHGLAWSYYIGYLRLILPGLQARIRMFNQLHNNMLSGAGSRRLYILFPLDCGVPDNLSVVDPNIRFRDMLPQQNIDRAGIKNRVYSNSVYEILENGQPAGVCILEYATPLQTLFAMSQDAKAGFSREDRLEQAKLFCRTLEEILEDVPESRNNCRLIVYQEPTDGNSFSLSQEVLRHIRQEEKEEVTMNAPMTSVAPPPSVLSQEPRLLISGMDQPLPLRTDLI
T1 sequence (Q8C7D2 whole entry, looked up): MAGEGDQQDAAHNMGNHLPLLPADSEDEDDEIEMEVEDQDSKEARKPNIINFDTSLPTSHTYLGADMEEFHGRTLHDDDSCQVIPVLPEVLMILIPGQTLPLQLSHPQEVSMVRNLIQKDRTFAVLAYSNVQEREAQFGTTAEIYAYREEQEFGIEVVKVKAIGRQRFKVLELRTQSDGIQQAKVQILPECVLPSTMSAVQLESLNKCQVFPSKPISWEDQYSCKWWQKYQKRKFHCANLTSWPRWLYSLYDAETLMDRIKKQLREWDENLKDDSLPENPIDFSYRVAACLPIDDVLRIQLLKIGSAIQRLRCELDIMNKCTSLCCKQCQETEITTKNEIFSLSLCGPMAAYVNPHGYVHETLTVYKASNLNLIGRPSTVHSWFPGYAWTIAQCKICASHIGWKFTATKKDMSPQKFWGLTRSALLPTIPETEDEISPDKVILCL

Compound: O=C(/C=C/C(=O)N1CCN(CC2CCN(c3cccc4c3C(=O)N(C3CCC(=O)NC3=O)C4=O)C2)CC1)Nc1ccc(NC(=O)c2ccc([N+](=O)[O-])o2)cc1 (centres undefined)
- inhibition [1]: Active
- survival at 50 mg/kg (Mus musculus [2]): 100%
- Activity (BV-2): Non-toxic
- Activity [3]: Non-toxic
- Activity [4]: 15.8%
- Activity [5]: Active
- AUC [6]: 0.73 µg/ml.hr
- Activity_index (Mus musculus [7]): Active
- Activity [8]: 25.1 g
- Vd [9]: 3.9 L/kg
- MRT last at 12 h [10]: 12 min
- Activity [11]: 23.4 g
- Activity (Mus musculus [12]): Active
- Activity [13]: 90.6%
- inhibition [14]: Active
- Activity (THP-1 [15]): inactive
- Activity [16]: 24.9 g
- MRT inf [17]: 12.6 min
- Activity [18]: Non-toxic
- Activity (THP-1 [19]): inactive
- inhibition (HK-2): Active
- DC50 [20]: 620 nM
- survival at 25 mg/kg (Mus musculus [21]): 78%
- CL [22]: 53.3 mL/min/kg

From ChEMBL document CHEMBL6182863, “Discovery of novel rigid STING PROTAC degraders as potential therapeutics for acute kidney injury” (Eur J Med Chem, 2025)
